Reference: paper PMC6014988, “Precision therapeutic targeting of human cancer cell motility” (Nature Communications, 2018)

Experiments:
[1] = tested on: phosphoproteins in PC3 cells; assay: PhosphoScan LC-MS/MS of BL4176 immunoprecipitates; assay type: cell-based, human
Method: The Kinoview™ and PhosphoScan™ assays were performed by Cell Signaling Technology Inc.
Supplementary Figure 12. Identification of the 83 kDa band using a proteomic approach.
(a) PC3 cells were pre-treated with 10 µM KBU2046 or vehicle (control) for 3 days, then treated with TGFβ for 1 hr, and the resultant cell lysates were subjected to immunoprecipitation with BL4176 (Kinoview® phospho-motif antibody). Proteins bound in this manner were analyzed in replicates of N=2 using PhosphoScan™ technology. This identified 483 unique phosphopeptide assignments from 306 parent proteins, with a mean false discovery rate of 0.30% (estimated via Sorcerer search of composite human database of forward and reverse protein entries). We only considered proteins where the average values for treatment and control were each 3 times that of background. Further, we required each of the N=2 replicate values (used to calculate the average) to be >/= 2.5 fold above background. We were only interested in situations in which protein decreased with KBU2046, and we required that decrease to be >/= 2.5 fold, compared to control.
According to these parameters, there were 19 phospho-proteins whose expression decreased in cells treated with KBU2046, compared to control. These are depicted above. Recognizing that each of these proteins may have value, we elected to remain focused on the 83 kDa protein, and therefore only considered proteins +/- 5 kDa of this value. Only heat shock protein 90 (HSP90)β

[2] = tested on: human prostate cells (PC3, PC3-M, 1532NPTX, 1542NPTX, 1532CPTX, 1542CPTX); assay: Cell invasion, panel of human prostate cells; assay type: cell-based
Method: Human prostate metastatic cells (PC3, PC3-M), and HPV-transformed normal (1532NPTX, 1542NPTX) and primary cancer (1532CPTX, 1542CPTX) cells, were treated with 10 µM genistein (G), KBU2046 (46), or vehicle (CO), and after 3 days, cell invasion was measured. Values are mean ± SEM of a single experiment in replicates of N = 4, with similar findings in multiple separate experiments (also N = 4). c Single-cell migration. Cell migration was measured after treatment for 3 days with 10 µM KBU2046 or vehicle (control). Values are mean ± SEM of a single experiment in replicates of N = 24, with similar findings in a separate experiment (also N = 24). *Denotes Student’s t-test P value <0.05, compared to controls. d Human cord blood hematopoietic stem cell colony formation assay. Values are the mean ± SD number of total, CFU-GM, CFU-GEMM, or BFU-E colonies at 14 days after treatment with KBU2046, from a single experiment in replicates of N = 2. e Induction of estrogen-responsive genes. Values are the mean ± SD of a single experiment, with similar results seen in a separate experiment, both in replicates of N = 2
Boyden chamber cell invasion assays were performed as previously described by us[30], using either denatured collagen (BD Biosciences) or type IV human collagen (BD Biosciences), with all experiments repeated, each in N = 4 replicates. […]

O=C1c2ccccc2OCC1c1ccc(F)cc1 (racemic) [KBU2046, (±)-3(4-fluorophenyl)chroman-4-one]
fold change, MFAP1 ([1]; AALDALNT*DDENDEEEYEAWK): -21.8 fold | fold change, UBL5 ([1]; CNT*DDTIGDLKK): -2.9 fold | fold change, PITSLRE ([1]; DLLS*DLQDIS*DSER): -3.3 fold | fold change, VAMP1 ([1]; DQKLS*ELDDR): -3.6 fold | fold change, PIMT ([1]; DRPHAS*GT*DGDES*EEDPPEHKPSK): -4.7 fold | fold change, PIMT ([1]; DRPHASGT*DGDES*EEDPPEHKPSK): -3.0 fold | fold change, HSP90B ([1]; EIS*DDEAEEEKGEKEEEDKDDEEKPK): -6.6 fold | fold change, FIP1L1 ([1]; ERDHS*PTPSVFNS*DEER): -2.9 fold | fold change, IWS1 ([1]; GHHVT*DSENDEPLNLNAS*DSESEELHR): -3.2 fold | fold change, NIN ([1]; HVLS*DLEDDEVR): -3.1 fold | fold change, PGRMC2 ([1]; LLKPGEEPS*EYT*DEEDTKDHNK, PC3, 10 µM 3 days, TGFβ 1 hr): -2.5 fold | fold change, LEO1 ([1]; MQNT*DDEERPQLS*DDER): -3.4 fold | fold change, NudC ([1]; NGSLDSPGKQDT*EEDEEEDEKDKGK): -2.5 fold | decrease in abundance of phosphorylated Ser226 on HSP90β ([1]; PC3 cells, KBU2046 then TGFβ): 6.6 fold | fold change, BAT2D1 ([1]; S*ES*SDFEVVPK): -2.7 fold | fold change, RBM5 ([1]; SEDGYHS*DGDYGEHDYR): -2.7 fold | fold change, CLASP2 ([1]; SRS*DIDVNAAAGAK): -2.4 fold | fold change, SSB ([1]; TKFAS*DDEHDEHDENGATGPVK): -4.5 fold | fold change, SEC62 ([1]; VGPGNHGTEGS*GGERHS*DTDS*DRR): -2.8 fold | fold change, SEC62 ([1]; VGPGNHGTEGSGGERHS*DT*DSDRR): -2.6 fold | cell invasion ([2]; 10 µM, 3 days): inhibits cell invasion with efficacy equal-to-or-greater-than that of genistein | effect upon invasion ([2]; after 3 days treatment of cells): 50%
